Assay results reported in patent US20240384350A1, “METHODS OF TREATING CANCER WITH KINASE INHIBITORS” (BOARD OF REGENTS, THE UNIVERSITY OF TEXAS SYSTEM, priority 2021, published 2024).

Legend:
Assay in all cases: Ba/F3 drug screening, Cell Titer Glo, IC50 Mut/WT
Format in all cases: cell-based
EGFR V769L = molecular target: T1, EGFR V769L (Homo sapiens, UniProt P00533, V769L); details: Ba/F3 cells, EGFR V769L (PACC), Mut/WT
T1 construct: expressed in transfected cells; host or cells: Ba/F3
Description: (§1) Data represent the ratio of the IC50 value for a given TKI for cells with a PACC EGFR mutation to the IC50 value for cells with wildtype EGFR.
(§2) Ba/F3 cell generation, drug screening, and IC50 approximations. Ba/F3 cells were obtained as a gift from Dr. Gordon Mills (MD Anderson Cancer Center), and maintained in RPMI (Sigma) containing 10% FBS, 1% penicillin/streptomycin, and 10 ng/ml recombinant mIL-3 (R&D Biosystems). To establish stable Ba/F3 cell lines, Ba/F3 cells were transduced with retroviruses containing mutant EGFR plasmids for 12-24 hours.
(§3) After 48-72 hours of transduction, 2 μg/ml puromycin (Invitrogen) was added to Ba/F3 cell lines in complete RPMI. To select for EGFR positive cell lines, cells were stained with PE-EGFR (Biolegend) and sorted by FACS. After sorting, EGFR positive cells were maintained in RPMI containing 10% FBS, 1% penicillin/streptomycin, and 1 ng/ml EGF to support cell viability. Drug screening was performed as previously described^41,42. Shortly, cells were plated in 384-well plates (Greiner Bio-One) at 2000-3000 cells per well in technical triplicate. Seven different concentrations of TKIs or DMSO vehicle were added to reach a final volume of 40 μL per well. After 72 hours, 11 μL of Cell Titer Glo (Promega) was added to each well. Plates were incubated for a minimum of 10 minutes, and bioluminescence was determined using a FLUOstar OPTIMA plate reader (BMG LABTECH). Raw bioluminescence values were normalized to DMSO control treated cells, and values were plotted in GraphPad Prism. […] Drug screens were performed in technical triplicate on each plate and either duplicate or triplicate biological replicates.

EGFR S768I = molecular target: T2, EGFR S768I (Homo sapiens, UniProt P00533, S768I); details: Ba/F3 cells, EGFR S768I (PACC), Mut/WT
T2 construct: expressed in transfected cells; host or cells: Ba/F3

EGFR L718Q = molecular target: T3, EGFR L718Q (Homo sapiens, UniProt P00533, L718Q); details: Ba/F3 cells, EGFR L718Q (PACC), Mut/WT
T3 construct: expressed in transfected cells; host or cells: Ba/F3

EGFR R776C = molecular target: T4, EGFR R776C (Homo sapiens, UniProt P00533, R776C); details: Ba/F3 cells, EGFR R776C (PACC), Mut/WT
T4 construct: host or cells: Ba/F3

EGFR D770insNPG = molecular target: T5, EGFR D770insNPG (Homo sapiens, UniProt P00533, INS770NPG); details: Ex20, 72 hours
T5 construct: expressed in transfected cells; host or cells: Ba/F3 cells, retroviral pBabe-Puro vector
Description: Data represent the ratio of the IC50 value for a given TKI for cells with an ex20ins EGFR mutation to the IC50 value for cells with wildtype EGFR.
as §2
(§4) After 48-72 hours of transduction, 2 μg/ml puromycin (Invitrogen) was added to Ba/F3 cell lines in complete RPMI. To select for EGFR positive cell lines, cells were stained with PE-EGFR (Biolegend) and sorted by FACS. After sorting, EGFR positive cells were maintained in RPMI containing 10% FBS, 1% penicillin/streptomycin, and 1 ng/ml EGF to support cell viability. Drug screening was performed as previously described^41,42. Shortly, cells were plated in 384-well plates (Greiner Bio-One) at 2000-3000 cells per well in technical triplicate. Seven different concentrations of TKIs or DMSO vehicle were added to reach a final volume of 40 μL per well. After 72 hours, 11 μL of Cell Titer Glo (Promega) was added to each well. Plates were incubated for a minimum of 10 minutes, and bioluminescence was determined using a FLUOstar OPTIMA plate reader (BMG LABTECH). Raw bioluminescence values were normalized to DMSO control treated cells, and values were plotted in GraphPad Prism. […] Drug screens were performed in technical triplicate on each plate and either duplicate or triplicate biological replicates. […] Statistical differences between groups were determined by ANOVA as described in the figure legends.

EGFR L858R L718Q = molecular target: T6, EGFR L858R L718Q (Homo sapiens, UniProt P00533, L718Q/L858R); details: Ba/F3 cells, EGFR L858R L718Q (PACC), Mut/WT
T6 construct: host or cells: Ba/F3
Description: as §1, §2, §3

EGFR Ex19del/T790M/G724S = molecular target: T7, EGFR Ex19del/T790M/G724S (Homo sapiens, UniProt P00533, DEL746-750/G724S/T790M); details: T790M-like-3S, 72 hours
T7 construct: expressed in transfected cells; host or cells: Ba/F3

EGFR A767insASV = molecular target: T8, EGFR A767insASV (Homo sapiens, UniProt P00533, DUP767-769); details: Ex20, 72 hours
T8 construct: expressed in transfected cells; host or cells: Ba/F3 cells, retroviral pBabe-Puro vector

EGFR L833V = molecular target: T9, EGFR L833V (Homo sapiens, UniProt P00533, L833V); details: Classical-Like, 72 hours
T9 construct: expressed in transfected cells; host or cells: Ba/F3 cells, retroviral pBabe-Puro vector
Description: (§5) Data represent the ratio of the IC50 value for a given TKI for cells with a classical-like EGFR mutation to the IC50 value for cells with wildtype EGFR.
as §2
(§6) After 48-72 hours of transduction, 2 μg/ml puromycin (Invitrogen) was added to Ba/F3 cell lines in complete RPMI. To select for EGFR positive cell lines, cells were stained with PE-EGFR (Biolegend) and sorted by FACS. After sorting, EGFR positive cells were maintained in RPMI containing 10% FBS, 1% penicillin/streptomycin, and 1 ng/ml EGF to support cell viability. […] Shortly, cells were plated in 384-well plates (Greiner Bio-One) at 2000-3000 cells per well in technical triplicate. Seven different concentrations of TKIs or DMSO vehicle were added to reach a final volume of 40 μL per well. After 72 hours, 11 μL of Cell Titer Glo (Promega) was added to each well. Plates were incubated for a minimum of 10 minutes, and bioluminescence was determined using a FLUOstar OPTIMA plate reader (BMG LABTECH). Raw bioluminescence values were normalized to DMSO control treated cells, and values were plotted in GraphPad Prism. […] Drug screens were performed in technical triplicate on each plate and either duplicate or triplicate biological replicates.

EGFR L858R T790M L718V = molecular target: T10, EGFR L858R T790M L718V (Homo sapiens, UniProt P00533, L718V/L858R/T790M); details: T790M-like-3R, 72 hours
T10 construct: expressed in transfected cells; host or cells: Ba/F3
Description: (§7) Data represent the ratio of the IC50 value for a given TKI for cells with a T790M-like-3R EGFR mutation to the IC50 value for cells with wildtype EGFR.
as §2
(§8) After 48-72 hours of transduction, 2 μg/ml puromycin (Invitrogen) was added to Ba/F3 cell lines in complete RPMI. To select for EGFR positive cell lines, cells were stained with PE-EGFR (Biolegend) and sorted by FACS. After sorting, EGFR positive cells were maintained in RPMI containing 10% FBS, 1% penicillin/streptomycin, and 1 ng/ml EGF to support cell viability. […] Shortly, cells were plated in 384-well plates (Greiner Bio-One) at 2000-3000 cells per well in technical triplicate. Seven different concentrations of TKIs or DMSO vehicle were added to reach a final volume of 40 μL per well. After 72 hours, 11 μL of Cell Titer Glo (Promega) was added to each well. Plates were incubated for a minimum of 10 minutes, and bioluminescence was determined using a FLUOstar OPTIMA plate reader (BMG LABTECH). Raw bioluminescence values were normalized to DMSO control treated cells, and values were plotted in GraphPad Prism. […] Drug screens were performed in technical triplicate on each plate and either duplicate or triplicate biological replicates. […] Statistical differences between groups were determined by ANOVA as described in the figure legends.

EGFR S768I/T790M = molecular target: T11, EGFR S768I/T790M (Homo sapiens, UniProt P00533, S768I/T790M); details: T790M-like-3S, 72 hours
T11 construct: expressed in transfected cells; host or cells: Ba/F3

EGFR K757R = molecular target: T12, EGFR K757R (Homo sapiens, UniProt P00533, K757R); details: Ba/F3 cells, EGFR K757R (PACC), Mut/WT
T12 construct: expressed in transfected cells; host or cells: Ba/F3
Description: as §1, §2, §4

EGFR L833F = molecular target: T13, EGFR L833F (Homo sapiens, UniProt P00533, L833F); details: Classical-Like, 72 hours
T13 construct: expressed in transfected cells; host or cells: Ba/F3 cells, retroviral pBabe-Puro vector

[1] = molecular target: T14, EGFR L747_K754del insATSPE (Homo sapiens, UniProt P00533, DEL747-749/K754E); details: T790M-like-3S, 72 hours
T14 construct: expressed in transfected cells; host or cells: Ba/F3 cells, retroviral pBabe-Puro vector

EGFR E709A G719S = molecular target: T15, EGFR E709A G719S (Homo sapiens, UniProt P00533, E709A/G719S); details: Ba/F3 cells, EGFR E709A G719S (PACC), Mut/WT
T15 construct: expressed in transfected cells; host or cells: Ba/F3

EGFR Ex19del/L792H = molecular target: T16, EGFR Ex19del/L792H (Homo sapiens, UniProt P00533, DEL746-750/L792H); details: Ba/F3 cells, EGFR Ex19del/L792H (PACC), Mut/WT
T16 construct: expressed in transfected cells; host or cells: Ba/F3
Description: as §1, §2, §3

EGFR L858R S784F = molecular target: T17, EGFR L858R S784F (Homo sapiens, UniProt P00533, L858R/S784F); details: Classical-Like, 72 hours
T17 construct: expressed in transfected cells; host or cells: Ba/F3 cells, retroviral pBabe-Puro vector (vector made by GeneScript from EGFR L858R)
Description: as §5, §2, §6

EGFR L718Q T790M = molecular target: T18, EGFR L718Q T790M (Homo sapiens, UniProt P00533, L718Q/T790M); details: T790M-like-3R, 72 hours
T18 construct: expressed in transfected cells; host or cells: Ba/F3
Description: as §7, §2, §8

EGFR H773insNPH = molecular target: T19, EGFR H773insNPH (Homo sapiens, UniProt P00533, INS773NPH); details: Ex20, 72 hours
T19 construct: expressed in transfected cells; host or cells: Ba/F3 cells, retroviral pBabe-Puro vector

EGFR Ex19del T854I = molecular target: T20, EGFR Ex19del T854I (Homo sapiens, UniProt P00533, DEL746-750/T854I); details: Ba/F3 cells, EGFR Ex19del T854I (PACC), Mut/WT
T20 construct: expressed in transfected cells; host or cells: Ba/F3 (retroviral transduction, pBabe-Puro based vectors)

EGFR L858R/T790M/L718Q = molecular target: T21, EGFR L858R/T790M/L718Q (Homo sapiens, UniProt P00533, L718Q/L858R/T790M); details: T790M-like-3R, 72 hours
T21 construct: expressed in transfected cells; host or cells: Ba/F3

EGFR R776H = molecular target: T22, EGFR R776H (Homo sapiens, UniProt P00533, R776H); details: Ba/F3 cells, EGFR R776H (PACC), Mut/WT
T22 construct: host or cells: Ba/F3

EGFR V774M = molecular target: T23, EGFR V774M (Homo sapiens, UniProt P00533, V774M); details: Ba/F3 cells, EGFR V774M (PACC), Mut/WT
T23 construct: host or cells: Ba/F3

EGFR L858R T790M V843I = molecular target: T24, EGFR L858R T790M V843I (Homo sapiens, UniProt P00533, L858R/T790M/V843I); details: T790M-like-3S, 72 hours
T24 construct: expressed in transfected cells; host or cells: Ba/F3
Description: Data represent the ratio of the IC50 value for a given TKI for cells with a T790M-like-3S EGFR mutation to the IC50 value for cells with wildtype EGFR.
as §2, §3

EGFR S811F = molecular target: T25, EGFR S811F (Homo sapiens, UniProt P00533, S811F); details: Classical-Like, 72 hours
T25 construct: expressed in transfected cells; host or cells: Ba/F3 cells, retroviral pBabe-Puro vector (vector made by GeneScript from EGFR WT)

EGFR L858R G724S = molecular target: T26, EGFR L858R G724S (Homo sapiens, UniProt P00533, G724S/L858R); details: Ba/F3 cells, EGFR L858R G724S (PACC), Mut/WT
T26 construct: expressed in transfected cells; host or cells: Ba/F3 (retroviral transduction, pBabe-Puro based vectors)

Structure (SMILES)	ratio of the IC50 value for cells with a PACC EGFR mutation to the IC50 value for cells with wildtype EGFR (EGFR V769L)	ratio of the IC50 value for cells with a PACC EGFR mutation to the IC50 value for cells with wildtype EGFR (EGFR S768I)	ratio of the IC50 value for cells with a PACC EGFR mutation to the IC50 value for cells with wildtype EGFR (EGFR L718Q)	ratio of the IC50 value for cells with a PACC EGFR mutation to the IC50 value for cells with wildtype EGFR (EGFR R776C)	ratio of IC50 for cells with mutant EGFR to IC50 for cells with wildtype EGFR (Mut/WT) (EGFR D770insNPG)	ratio of the IC50 value for cells with a PACC EGFR mutation to the IC50 value for cells with wildtype EGFR (EGFR L858R L718Q)	ratio of IC50 for cells with mutant EGFR to IC50 for cells with wildtype EGFR (Mut/WT) (EGFR Ex19del/T790M/G724S)	ratio of IC50 for cells with mutant EGFR to IC50 for cells with wildtype EGFR (Mut/WT) (EGFR A767insASV)	ratio of IC50 for cells with mutant EGFR to IC50 for cells with wildtype EGFR (Mut/WT) (EGFR L833V)	ratio of IC50 for cells with mutant EGFR to IC50 for cells with wildtype EGFR (Mut/WT) (EGFR L858R T790M L718V)	ratio of IC50 for cells with mutant EGFR to IC50 for cells with wildtype EGFR (Mut/WT) (EGFR S768I/T790M)	ratio of the IC50 value for cells with a PACC EGFR mutation to the IC50 value for cells with wildtype EGFR (EGFR K757R)	ratio of IC50 for cells with mutant EGFR to IC50 for cells with wildtype EGFR (Mut/WT) (EGFR L833F)	ratio of IC50 for cells with mutant EGFR to IC50 for cells with wildtype EGFR (Mut/WT) [1]	ratio of the IC50 value for cells with a PACC EGFR mutation to the IC50 value for cells with wildtype EGFR (EGFR E709A G719S)	ratio of the IC50 value for cells with a PACC EGFR mutation to the IC50 value for cells with wildtype EGFR (EGFR Ex19del/L792H)	ratio of IC50 for cells with mutant EGFR to IC50 for cells with wildtype EGFR (Mut/WT) (EGFR L858R S784F)	ratio of IC50 for cells with mutant EGFR to IC50 for cells with wildtype EGFR (Mut/WT) (EGFR L718Q T790M)	ratio of IC50 for cells with mutant EGFR to IC50 for cells with wildtype EGFR (Mut/WT) (EGFR H773insNPH)	ratio of the IC50 value for cells with a PACC EGFR mutation to the IC50 value for cells with wildtype EGFR (EGFR Ex19del T854I)	also measured
C=CC(=O)Nc1cccc(Oc2nc(Nc3ccc(N4CCN(C)CC4)cc3)nc3ccsc23)c1 [Olmutinib]	0.3121	0.007216	3.977	0.5131	0.31	2.324	0.005075	0.6792	0.03803	0.8754	0.0215	0.1439	0.1289	0.0001357	0.1443	0.01923	0.04569	0.3579	0.4274	1.31	ratio of IC50 for cells with mutant EGFR to IC50 for cells with wildtype EGFR (Mut/WT) (EGFR L858R/T790M/L718Q): 0.6196; ratio of the IC50 value for cells with a PACC EGFR mutation to the IC50 value for cells with wildtype EGFR (EGFR R776H): 0.1146; ratio of the IC50 value for cells with a PACC EGFR mutation to the IC50 value for cells with wildtype EGFR (EGFR V774M): 0.06988; ratio of IC50 for cells with mutant EGFR to IC50 for cells with wildtype EGFR (Mut/WT) (EGFR L858R T790M V843I): 0.000771; ratio of IC50 for cells with mutant EGFR to IC50 for cells with wildtype EGFR (Mut/WT) (EGFR S811F): 0.0307; ratio of the IC50 value for cells with a PACC EGFR mutation to the IC50 value for cells with wildtype EGFR (EGFR L858R G724S): 0.02052
C=CC(=O)N[C@H]1C=C(C)c2c(-c3cnc4ccccc4c3)c3c(N)ncnc3n2C1 [TAS 6417]	0.159	0.0846	0.02239	0.1072	0.0168	0.0157	0.1997	0.1359	0.03111	2.011	0.1153	0.4608	0.06886	0.0004661	0.03472	0.008269	0.001423	0.02624	0.1843	0.0152	ratio of IC50 for cells with mutant EGFR to IC50 for cells with wildtype EGFR (Mut/WT) (EGFR L858R/T790M/L718Q): 3.055; ratio of the IC50 value for cells with a PACC EGFR mutation to the IC50 value for cells with wildtype EGFR (EGFR R776H): 0.09; ratio of the IC50 value for cells with a PACC EGFR mutation to the IC50 value for cells with wildtype EGFR (EGFR V774M): 0.3282; ratio of IC50 for cells with mutant EGFR to IC50 for cells with wildtype EGFR (Mut/WT) (EGFR L858R T790M V843I): 0.07336; ratio of IC50 for cells with mutant EGFR to IC50 for cells with wildtype EGFR (Mut/WT) (EGFR S811F): 0.009026; ratio of the IC50 value for cells with a PACC EGFR mutation to the IC50 value for cells with wildtype EGFR (EGFR L858R G724S): 0.01631
